Where two headings read alike, the source gives them in different places.
Legend:
[1] = biological target: phosphodiesterase I from Crotalus adamanteus venom (Crotalus adamanteus, UniProt J3SEZ3); assay: biochemical
mushroom tyrosinase = biological target: T1, mushroom tyrosinase (Agaricus bisporus, UniProt C7FF04); assay: Tyrosinase inhibition (L-DOPA, 96-well); assay type: biochemical; conditions: L-DOPA substrate, read-out: IC50 ± S.E. (tyrosinase)
T1 construct: purchased Sigma-Aldrich T3824; host or cells: mushroom (natural source)
T1 sequence (C7FF04 1-392 limits assumed): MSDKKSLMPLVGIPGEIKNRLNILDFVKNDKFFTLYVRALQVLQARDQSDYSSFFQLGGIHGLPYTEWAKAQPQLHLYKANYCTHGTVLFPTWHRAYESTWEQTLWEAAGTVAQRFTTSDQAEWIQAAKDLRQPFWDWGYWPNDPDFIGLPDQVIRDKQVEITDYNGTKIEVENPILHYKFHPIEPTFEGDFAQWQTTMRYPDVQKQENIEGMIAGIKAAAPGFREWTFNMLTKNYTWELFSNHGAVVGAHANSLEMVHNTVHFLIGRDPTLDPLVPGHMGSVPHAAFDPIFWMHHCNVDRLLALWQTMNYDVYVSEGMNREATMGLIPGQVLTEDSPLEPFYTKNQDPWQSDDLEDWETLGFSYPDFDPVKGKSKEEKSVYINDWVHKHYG
Experimental: According to this method, the tested compounds (10 µL) was carefully transfer into a 96-well microplate, mixed with 10 µL mushroom tyrosinase and buffer solution 60 µL. After incubation, 20 µL of 3,4-dihydroxy-l-phenylalanine (L-DOPA) in phosphate buffer was blended, and some amount of dopachrome was added into the reaction mixture. The effect was checked by spectrophotometry at 450 nm with (OD480) (optical density, OD). EZ-Fit software was used to measure the IC50 values in µM. The % inhibition was calculated by using following formula. Percent inhibition=100−OD test well/OD control×100

[2] = biological target: bovine serum albumin (BSA) glycation by MGO (Bos taurus, UniProt P02769); assay: Anti-glycation inhibition (BSA-MGO fluorescence); assay type: biochemical; conditions: 37 °C, 9 days; for IC50: read-out: IC50 ± S.E. (antiglycation)
Sequence of bovine serum albumin (BSA) glycation by MGO (P02769 25-607): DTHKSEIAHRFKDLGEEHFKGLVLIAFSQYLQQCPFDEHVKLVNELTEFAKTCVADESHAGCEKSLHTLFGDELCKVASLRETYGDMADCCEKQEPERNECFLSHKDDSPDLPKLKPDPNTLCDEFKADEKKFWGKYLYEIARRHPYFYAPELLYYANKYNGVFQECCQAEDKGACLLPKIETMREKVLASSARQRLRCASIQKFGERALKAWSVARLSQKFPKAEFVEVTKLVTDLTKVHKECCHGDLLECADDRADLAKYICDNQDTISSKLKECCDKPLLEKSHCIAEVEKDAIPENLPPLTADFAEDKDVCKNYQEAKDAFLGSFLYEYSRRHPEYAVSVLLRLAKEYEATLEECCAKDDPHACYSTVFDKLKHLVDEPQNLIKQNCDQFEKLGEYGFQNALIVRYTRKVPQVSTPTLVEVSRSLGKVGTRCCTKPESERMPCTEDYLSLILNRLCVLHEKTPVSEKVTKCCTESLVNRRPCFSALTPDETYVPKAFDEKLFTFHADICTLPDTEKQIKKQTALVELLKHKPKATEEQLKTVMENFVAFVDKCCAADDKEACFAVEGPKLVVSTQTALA
Experimental: After incubation, glycation of protein was measured using fluorescence (emission, 440 nm; excitation, 330 nm), against a blank, and using a microtiter plate spectrophotometer (Spectra Max, Molecular Devices, Sunnyvale, CA).

[3] = biological target: Jack bean (Canavalia ensiformis) urease (Canavalia ensiformis, UniProt P07374); assay: biochemical
Sequence of Jack bean (Canavalia ensiformis) urease (P07374 whole entry, looked up): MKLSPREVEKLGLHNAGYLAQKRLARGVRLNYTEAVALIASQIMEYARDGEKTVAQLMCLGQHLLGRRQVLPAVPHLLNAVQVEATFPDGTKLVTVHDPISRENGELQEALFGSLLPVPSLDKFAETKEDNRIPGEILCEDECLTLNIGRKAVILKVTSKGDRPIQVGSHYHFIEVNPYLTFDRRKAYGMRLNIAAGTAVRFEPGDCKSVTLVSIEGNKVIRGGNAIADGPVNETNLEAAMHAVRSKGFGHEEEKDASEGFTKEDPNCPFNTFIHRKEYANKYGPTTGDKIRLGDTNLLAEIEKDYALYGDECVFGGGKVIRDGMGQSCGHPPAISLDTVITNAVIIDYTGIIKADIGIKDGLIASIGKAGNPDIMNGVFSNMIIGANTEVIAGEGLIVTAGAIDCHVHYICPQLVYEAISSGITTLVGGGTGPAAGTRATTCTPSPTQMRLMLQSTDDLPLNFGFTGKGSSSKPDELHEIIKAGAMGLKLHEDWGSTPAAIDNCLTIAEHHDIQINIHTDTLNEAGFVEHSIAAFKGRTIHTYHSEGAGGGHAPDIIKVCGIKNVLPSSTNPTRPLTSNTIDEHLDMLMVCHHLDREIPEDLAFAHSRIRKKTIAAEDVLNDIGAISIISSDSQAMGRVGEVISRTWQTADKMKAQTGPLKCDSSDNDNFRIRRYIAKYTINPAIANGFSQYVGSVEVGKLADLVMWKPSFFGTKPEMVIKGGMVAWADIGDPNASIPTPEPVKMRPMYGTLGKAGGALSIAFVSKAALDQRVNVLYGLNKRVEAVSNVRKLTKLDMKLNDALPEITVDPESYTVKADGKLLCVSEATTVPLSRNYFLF

Sequence of phosphodiesterase I from Crotalus adamanteus venom (J3SEZ3 24-851 limits assumed): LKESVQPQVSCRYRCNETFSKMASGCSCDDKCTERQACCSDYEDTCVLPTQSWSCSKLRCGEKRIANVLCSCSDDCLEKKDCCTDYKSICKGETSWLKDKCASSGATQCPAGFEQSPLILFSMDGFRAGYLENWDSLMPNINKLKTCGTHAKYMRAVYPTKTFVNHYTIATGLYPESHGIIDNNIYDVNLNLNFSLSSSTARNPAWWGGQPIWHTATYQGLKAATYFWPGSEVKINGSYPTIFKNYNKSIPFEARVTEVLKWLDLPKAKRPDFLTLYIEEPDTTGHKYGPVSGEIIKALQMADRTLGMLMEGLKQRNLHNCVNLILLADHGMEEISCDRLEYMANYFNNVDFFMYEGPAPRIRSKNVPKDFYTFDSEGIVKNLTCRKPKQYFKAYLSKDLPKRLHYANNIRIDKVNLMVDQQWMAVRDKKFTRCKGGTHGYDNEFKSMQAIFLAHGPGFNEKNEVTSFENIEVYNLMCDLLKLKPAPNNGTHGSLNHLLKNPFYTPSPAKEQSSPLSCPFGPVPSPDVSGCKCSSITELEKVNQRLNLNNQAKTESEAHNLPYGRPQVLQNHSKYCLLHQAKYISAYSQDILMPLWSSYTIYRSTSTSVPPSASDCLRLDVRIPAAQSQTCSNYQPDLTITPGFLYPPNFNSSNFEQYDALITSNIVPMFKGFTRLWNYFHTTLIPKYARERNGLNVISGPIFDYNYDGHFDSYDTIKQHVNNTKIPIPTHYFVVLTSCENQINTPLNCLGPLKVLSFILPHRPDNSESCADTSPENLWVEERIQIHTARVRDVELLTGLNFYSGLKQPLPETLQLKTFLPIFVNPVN

Structure (SMILES) | IC50 ([1]; table head prints no unit, read-out: IC50 ± S.E.M. (phosphodiesterase)) | IC50 (mushroom tyrosinase) | IC50 [1] | IC50 ± S.E. (antiglycation) [2] | IC50 [3] | IC50 [2]
O=C(O)CN(CCN(CC(=O)O)CC(=O)O)CC(=O)O [EDTA, reference compound] | 265 ± 2.24 µM | – | – | – | – | –
COc1cc(-c2oc3cc(O)c(OC)c(O)c3c(=O)c2O)ccc1O [compound 1, 3,5,7-trihydroxy-2-(4-hydroxy-3-methoxyphenyl)-6-methoxy-4H-chromen-4-one] | – | 48.7 ± 2.19 µM | 148.7 ± 1.09 µM | inactive | 15.3 ± 2.13 µM | –
COc1c(O)cc2oc(-c3ccc(O)c(O)c3)c(O)c(=O)c2c1O [compound 2, 2-(3,4-dihydroxyphenyl)-3,5,7-trihydroxy-6-methoxy-4H-chromen-4-one] | – | 74.8 ± 1.79 µM | 95.2 ± 4.14 µM | – | 19 ± 2.43 µM | 244.8 ± 1.79 µM
C[C@@H]1O[C@@H](OC[C@H]2O[C@@H](Oc3c(-c4ccc(O)c(O)c4)oc4cc(O)cc(O)c4c3=O)[C@H](O)[C@@H](O)[C@@H]2O)[C@H](O)[C@H](O)[C@H]1O [rutin, Rutin, reference compound] | – | – | – | – | – | 295 ± 3.14 µM
